# Measured values reported in US9567347B2, “Use of small molecule inhibitors targeting the interaction between RAC GTPase and p67(phox)” (CHILDREN'S HOSPITAL MEDICAL CENTER, priority 2012, dated 2017).
# Entries after “also recorded” stand apart in the source; their conditions may differ.
# Molecular target: T1, reconstituted NOX2 (Homo sapiens, UniProt P19878)
# T1 sequence (P19878 1-526): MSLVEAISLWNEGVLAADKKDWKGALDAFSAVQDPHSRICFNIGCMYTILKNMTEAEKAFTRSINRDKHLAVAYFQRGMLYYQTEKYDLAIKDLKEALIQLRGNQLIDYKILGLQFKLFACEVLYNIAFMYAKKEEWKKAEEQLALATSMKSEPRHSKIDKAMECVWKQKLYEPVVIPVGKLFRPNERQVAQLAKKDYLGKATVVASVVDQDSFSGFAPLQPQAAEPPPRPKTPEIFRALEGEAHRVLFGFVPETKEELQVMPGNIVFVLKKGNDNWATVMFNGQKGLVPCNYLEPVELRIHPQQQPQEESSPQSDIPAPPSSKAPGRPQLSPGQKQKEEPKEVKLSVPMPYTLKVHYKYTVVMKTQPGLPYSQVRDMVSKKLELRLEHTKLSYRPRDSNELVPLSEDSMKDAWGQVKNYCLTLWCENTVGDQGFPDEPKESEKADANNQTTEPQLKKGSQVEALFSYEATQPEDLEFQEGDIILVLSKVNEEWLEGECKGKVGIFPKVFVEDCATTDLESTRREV
# Assay: cell-free superoxide production assay
# Type: biochemical
# Conditions: reconstitution conditions, FIG. 7
# Protocol: In order to complement the in silico and cellular results, Phox-I1 and Phox-I2 were tested in cell-free superoxide production assays. Phox-I2 was added to p67 phox (50 nM) in a total volume of 200 μl, and incubated for 30 min at room temperature. A mixture of solubilized macrophage membrane (5 nM cytochrome b 558 heme), p47 phox (50 nM), and Rac1 GMPPNP (nonprenylated) (50 nm), were added. Lithium dodecyl sulfate (LiDS) was added at 130 μM and incubated for 90 sec at room temperature. NADPH was then added (238 μM) and superoxide production measured. In this system, a turnover of 58.88 mol superoxide/sec/mol cytochrome b558 heme was measured. The results were calculated by taking superoxide production in the absence of Phox-I2 as 100% and values obtained with Phox-I2 were expressed as % inhibition. The mean data represent those from six separate experiments.
smiles,measurement,value
O=[N+]([O-])c1cccc(C2Nc3ccc([N+](=O)[O-])cc3C3C=CCC32)c1 (stereo not shown) [Phox-I2],Rac1-GMPPNP induced superoxide burst,dose-dependent inhibition; also recorded: dose-dependently inhibit
